Common to all, as to assay type: biochemical
Assay [1] deals with CDK1/Cyclin B1 (Homo sapiens (Human), UniProt P06493). Briefly: CDK1/Cyclin B1 ADP-Glo Kinase Assay. Here is the method:
CDK1/Cyclin B1 ADP-Glo Kinase Assay
(§1) The purpose of CDK1/Cyclin Bi assay is to evaluate the inhibition (% inhibition and IC50 values) of small molecule inhibitors by using a Luminescent based ADP-Glo assay. CDK1/Cyclin B1 catalyzes the production of ADP from ATP. ADP-Glo assay monitors ADP producing biochemical reactions. ADP-Glo is performed in 2 steps upon completion of kinase reaction: a combined termination of kinase reaction and depletion of remaining ATP in the first step, and conversion of generated ADP to ATP and the newly produced ATP to light output using luciferase/luciferin reaction in the second step. The luminescent signal generated is proportional to the ADP concentration produced and is correlated with the kinase activity. CDK1/Cyclin B1 was purchased from Carna (Cat 04-102). […] The assay was initiated with the addition of ATP-containing substrate solution, following a 30-minute pre-incubation of enzyme and inhibitor at room temperature in the reaction mixture. The reaction was stopped after 90 minutes at room temperature by the addition of 10 μL of ADP-GLO Reagent. After a 90 minute incubation, 20 μL of Kinase Detection Reagent was added. Samples were incubated for 40 minutes, after which plate well luminescence was measured on a Envision microplate reader. The IC50 determinations were made from a plot of the fractional velocity as a function of inhibitor concentration fit to the 4 parameters IC50 equation.

For assay [2], the target named is CDK6/Cyclin D3 (Homo sapiens (Human), UniProt Q00534). Briefly: CDK6/Cyclin D3 ADP-Glo Kinase Assay. As to conditions: read-out: CDK6/CyclinD3 IC50. On the procedure:
CDK6/Cyclin D3 ADP-Glo Kinase Assay
as §1, with “of the CDK6/Cyclin D3” for “of CDK1/Cyclin Bi”, “values) in the presence” for “values)”, “assay. CDK6/Cyclin D3” for “assay. CDK1/Cyclin B1”, “activity. CDK6/Cychin D3” for “activity. CDK1/Cyclin B1”, “from Carna.” for “from Carna (Cat 04-102).”, “a 90-minute” for “a 90 minute”
(In general: In ADP-Glo the light output rises with the ADP produced.)

The target of assay [3] is CDK4/Cyclin D1 (Homo sapiens (Human), UniProt P11802). Briefly: CDK4/Cyclin D1 CHEF Assay. The note with it: AQT; read-out: CDK4/CyclinD1 AQT IC50. From the text:
CDK4/Cyclin D1 CHEF Assay
The purpose of CDK4/Cyclin Dl assay is to evaluate the inhibition (% inhibition and IC50 values) of small molecule inhibitors by using a Chelation-Enhance Fluorescence (CHEF) assay. In a CHEF assay, phosphorylation of a peptide substrate results in proportional increase in fluorescence. CHEF kinase assay use peptide substrates containing a synthetic alpha-amino acid with a side chain bearing an 8-hydroxyquinoline derivative (sulfonamido-oxide, Sox). Upon phosphorylation of a nearby serine, threonine or tyrosine and in the presence of Mg(II), the spectral properties of the Sox residue are altered, emitting 485 nm wavelength light when excited with a 360 nm wavelength light source. CDK4/Cyclin D1 catalyzes the phosphoryl transfer to the SOX-labeled substrate peptide AQT0258 from Assayquant Technologies. […] The reaction was initiated with the addition of substrate solution, following a 30-minute pre-incubation of enzyme and inhibitor at 22° C. in the reaction mix. Reactions were allowed to proceed for 3 hrs at 22° C., followed by fluorescence read of the reaction. The IC50 determinations were made from a plot of the fractional velocity as a function of inhibitor concentration fit to the 4 parameters IC50 equation.

Structures are written as SMILES. pIC50: −log10 of the molar value. A value given as a limit tells only on which side of the number the result lay.

CDK1/Cyclin B1, sequence (P06493 whole entry): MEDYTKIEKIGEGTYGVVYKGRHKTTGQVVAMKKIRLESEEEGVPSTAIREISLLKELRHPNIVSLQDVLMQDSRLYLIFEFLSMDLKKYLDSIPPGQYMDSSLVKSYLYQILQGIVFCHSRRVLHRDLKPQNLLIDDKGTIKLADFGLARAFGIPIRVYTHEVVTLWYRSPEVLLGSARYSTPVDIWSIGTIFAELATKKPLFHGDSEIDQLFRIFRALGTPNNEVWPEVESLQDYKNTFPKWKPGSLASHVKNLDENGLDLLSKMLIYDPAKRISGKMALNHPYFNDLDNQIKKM
CDK1/Cyclin B1, sequence (P14635 whole entry partner): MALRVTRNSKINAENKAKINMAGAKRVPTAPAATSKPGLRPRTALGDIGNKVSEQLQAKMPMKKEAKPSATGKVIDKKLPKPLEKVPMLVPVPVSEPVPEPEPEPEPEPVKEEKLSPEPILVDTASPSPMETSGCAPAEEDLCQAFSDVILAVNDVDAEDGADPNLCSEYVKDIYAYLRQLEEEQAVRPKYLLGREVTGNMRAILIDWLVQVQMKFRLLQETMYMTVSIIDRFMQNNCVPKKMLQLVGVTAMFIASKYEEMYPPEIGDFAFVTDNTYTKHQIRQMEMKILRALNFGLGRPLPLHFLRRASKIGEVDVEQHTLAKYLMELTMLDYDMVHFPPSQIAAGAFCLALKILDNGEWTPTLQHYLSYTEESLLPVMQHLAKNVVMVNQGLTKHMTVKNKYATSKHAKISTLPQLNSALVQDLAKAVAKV
CDK4/Cyclin D1, sequence (P11802 whole entry, species assumed): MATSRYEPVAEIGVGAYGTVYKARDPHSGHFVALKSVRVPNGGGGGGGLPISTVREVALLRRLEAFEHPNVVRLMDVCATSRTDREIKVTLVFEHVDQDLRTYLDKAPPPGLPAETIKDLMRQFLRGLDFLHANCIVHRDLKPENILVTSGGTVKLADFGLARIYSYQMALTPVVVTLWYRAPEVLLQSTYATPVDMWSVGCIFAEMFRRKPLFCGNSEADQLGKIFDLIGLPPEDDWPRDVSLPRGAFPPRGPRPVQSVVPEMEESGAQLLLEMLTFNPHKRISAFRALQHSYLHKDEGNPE
CDK4/Cyclin D1, sequence (P24385 whole entry partner, species assumed): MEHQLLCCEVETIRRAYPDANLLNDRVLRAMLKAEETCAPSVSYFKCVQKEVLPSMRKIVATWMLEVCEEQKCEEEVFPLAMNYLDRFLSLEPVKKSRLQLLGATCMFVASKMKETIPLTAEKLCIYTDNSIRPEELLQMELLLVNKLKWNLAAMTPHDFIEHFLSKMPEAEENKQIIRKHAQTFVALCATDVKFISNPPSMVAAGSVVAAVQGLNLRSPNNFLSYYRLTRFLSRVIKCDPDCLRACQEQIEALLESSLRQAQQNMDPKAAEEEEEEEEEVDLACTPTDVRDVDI
CDK6/Cyclin D3, sequence (Q00534 whole entry): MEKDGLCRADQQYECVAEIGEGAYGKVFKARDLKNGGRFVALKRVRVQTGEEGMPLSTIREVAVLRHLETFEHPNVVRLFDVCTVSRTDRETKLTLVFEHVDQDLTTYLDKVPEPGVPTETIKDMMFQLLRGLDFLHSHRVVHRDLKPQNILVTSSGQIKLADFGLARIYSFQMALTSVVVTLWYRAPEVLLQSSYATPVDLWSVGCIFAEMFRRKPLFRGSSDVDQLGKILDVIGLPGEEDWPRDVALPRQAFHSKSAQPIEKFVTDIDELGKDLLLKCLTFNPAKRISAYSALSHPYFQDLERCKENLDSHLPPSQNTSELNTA
CDK6/Cyclin D3, sequence (P30281 whole entry partner): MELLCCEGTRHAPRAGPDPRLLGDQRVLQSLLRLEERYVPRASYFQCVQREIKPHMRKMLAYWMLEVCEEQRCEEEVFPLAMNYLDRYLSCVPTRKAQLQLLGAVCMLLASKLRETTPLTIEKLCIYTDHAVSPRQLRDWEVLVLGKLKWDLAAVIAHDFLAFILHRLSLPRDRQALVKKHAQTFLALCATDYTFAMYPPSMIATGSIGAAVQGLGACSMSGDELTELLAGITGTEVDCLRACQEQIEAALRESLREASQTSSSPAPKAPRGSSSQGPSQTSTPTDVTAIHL

In assay [1], `[2H]C([2H])([2H])N1CC2(CN(c3nc(C)cc4cnc(NC5CCN(S(=O)(=O)C6CC6)CC5)nc34)CC2(F)F)C1` [Compound 13, N-(1-(cyclopropylsulfonyl)piperidin-4-yl)-8-(8,8-difluoro-2-(methyl-d3)-2,6-diazaspiro[3.4]octan-6-yl)-6-methylpyrido[3,4-d]pyrimidin-2-amine] showed a pIC50 of over 6.70. For the compound `CN1C[C@@H]2[C@H](C1)[C@H]2Nc1ncc2ccnc(N3CCC4(CCN(S(C)(=O)=O)C4)C3)c2n1` (stereo partly drawn) [Compound 15, N-((1R,5S,6s)-3-methyl-3-azabicyclo[3.1.0]hexan-6-yl)-8-(7-(methylsulfonyl)-2,7-diazaspiro[4.4]nonan-2-yl) pyrido[3,4-d]pyrimidin-2-amine], the pIC50 in assay [1] and in assay [2] was under 5.70 throughout. `CS(=O)(=O)N1CCC(Nc2ncc3ccnc(N4CC5(CCCC5)c5c(F)cccc54)c3n2)CC1` [Compound 19, 8-(4′-fluorospiro [cyclopentane-1,3′-indolin]-1′-yl)-N-(1-(methylsulfonyl)piperidin-4-yl)pyrido[3,4-d]pyrimidin-2-amine]: the pIC50 in assay [1] and in assay [2] was under 5.70 in each case. For `CN1Cc2ccc(Nc3ncc4ccnc(N5CCC6(CCN(S(C)(=O)=O)C6)C5)c4n3)cc2C1` (stereo not drawn) [Compound 23, N-(2-methylisoindolin-5-yl)-8-(7-(methylsulfonyl)-2,7-diazaspiro[4.4]nonan-2-yl) pyrido[3,4-d]pyrimidin-2-amine], the pIC50 in assay [3] and in assay [2] was over 6.70 throughout. As to `CN1Cc2ccc(Nc3ncc4ccnc(N5CC6(C5)CS(=O)(=O)C6)c4n3)cc2C1` [Compound 24, 6-(2-((2-methylisoindolin-5-yl)amino)pyrido [3,4-d]pyrimidin-8-yl)-2-thia-6-azaspiro[3.3] heptane2,2-dioxide], the pIC50 in assay [3] and in assay [2] was over 6.70 in each case. Turning to `Cc1cc2cnc(Nc3ccc(N4CC5(CN(C)C5)C4)cc3)nc2c(N2CCC(C#N)(C3CC3)C2)n1` (stereo not drawn) [Compound 28, 3-cyclopropyl-1-(6-methyl-2-((4-(6-methyl-2,6-diazaspiro[3.3]heptan-2-yl)phenyl)amino)pyrido[3,4-d]pyrimidin-8-yl)pyrrolidine-3-carbonitrile], the pIC50 in assay [3] and in assay [2] was over 6.70 in each case. `Cc1cc2cnc(Nc3cnn(C4CN(CC#N)C4)c3)nc2c(N2CC3(CN(C)C3)C2)n1` [Compound 31, 2-(3-(4-((6-methyl-8-(6-methyl-2,6-diazaspiro[3.3]heptan-2-yl)pyrido[3,4-d]pyrimidin-2-yl)amino)-1H-pyrazol-1-yl)azetidin-1-yl)acetonitrile] showed a pIC50 in assay [1] of under 5.70.

Turning to `Cc1cc2cnc(NC3CCN(S(=O)(=O)C4CC4)CC3)nc2c(N2CC3(CNC3)C2)n1` [Compound 32, N-(1-(cyclopropylsulfonyl)piperidin-4-yl)-6-methyl-8-(2,6-diazaspiro[3.3]heptan-2-yl) pyrido[3,4-d]pyrimidin-2-amine], the pIC50 in assay [3] and in assay [2] was over 6.70 each time.

On to `Cc1cc2cnc(Nc3ccc(N4CC5(CN(C)C5)C4)cc3)nc2c(N2CCC3(C2)CC3(F)F)n1` (stereo not drawn) [Compound 34, 8-(1,1-difluoro-5-azaspiro[2.4]heptan-5-yl)-6-methyl-N-(4-(6-methyl-2,6-diazaspiro[3.3]heptan-2-yl)phenyl)pyrido [3,4-d]pyrimidin-2-amine], for which the pIC50 in assay [3] and in assay [2] was over 6.70 throughout. As for `Cc1cc2cnc(Nc3cnn(CC4(N(C)C)CC4)c3)nc2c(N2CCC(C#N)(C3CC3)C2)n1` (stereo not drawn) [Compound 38, 3-cyclopropyl-1-(2-((1-((1-(dimethylamino)cyclopropyl)methyl)-1H-pyrazol-4-yl)amino)-6-methylpyrido[3,4-d]pyrimidin-8-yl)pyrrolidine-3-carbonitrile], the pIC50 in assay [1] and in assay [2] was under 5.70 in each case. `Cc1cc2cnc(NC3CCN(S(C)(=O)=O)CC3)nc2c(N2CCC3(C2)CC3(F)F)n1` (stereo not drawn) [Compound 41, 8-(1,1-difluoro-5-azaspiro[2.4]heptan-5-yl)-6-methyl-N-(1-(methylsulfonyl)piperidin-4-yl)pyrido[3,4-d]pyrimidin-2-amine]: the pIC50 in assay [1] was over 6.70. `Cc1cc2cnc(Nc3ccc4c(c3)CN(C3CC3)C4)nc2c(N2CC3(CCNC3)C2)n1` [Compound 47]: the pIC50 in assay [3] and in assay [2] was over 6.70 in each case.

Turning to `Cc1cc2cnc(NC3CCN(S(=O)(=O)C4CC4)CC3)nc2c(N2CC3(CCN(C)C3)C2)n1` [Compound 49, N-(1-(cyclopropylsulfonyl)piperidin-4-yl)-6-methyl-8-(6-methyl-2,6-diazaspiro[3.4]octan-2-yl)pyrido[3,4-d]pyrimidin-2-amine], the pIC50 in assay [3] was over 6.70; in assay [2] it was 6.30 to 6.70. As for `FC(F)c1cc2cnc(Nc3ccc4c(c3)CN(C3CC3)C4)nc2c(N2CC3(CCNC3)C2)n1` [Compound 50, N-(2-cyclopropylisoindolin-5-yl)-6-(difluoromethyl)-8-(2,6-diazaspiro[3.4]octan-2-yl)pyrido[3,4-d]pyrimidin-2-amine], the pIC50 in assay [3] and in assay [2] was over 6.70 each time. For `Cc1cc2cnc(NC3CCN(S(=O)(=O)CC4CCCC4)CC3)nc2c(N2CC3(CCNC3)C2)n1` [Compound 51, N-(1-((cyclopentylmethyl)sulfonyl)piperidin-4-yl)-6-methyl-8-(2,6-diazaspiro[3.4]octan-2-yl)pyrido[3,4-d]pyrimidin-2-amine], the pIC50 in assay [3] was over 6.70; in assay [2] it was 6.30 to 6.70. The matching figures for `COCCN1CC2(C1)CN(c1nc(C3CC3)cc3cnc(NC4CCN(S(=O)(=O)CC5CCC5)CC4)nc13)C2` [Compound 64, N-(1-((cyclobutylmethyl)sulfonyl)piperidin-4-yl)-6-cyclopropyl-8-(6-(2-methoxyethyl)-2,6-diazaspiro[3.3]heptan-2-yl)pyrido [3,4-d]pyrimidin-2-amine]: over 6.70 and 6.30 to 6.70.

In the case of `CS(=O)(=O)N1CCC(Nc2ncc3cc(C4CC4)nc(C4CC5(CNCCO5)C4)c3n2)CC1` (stereo not drawn) [Compound 70, 6-cyclopropyl-N-(1-(methylsulfonyl)piperidin-4-yl)-8-(5-oxa-8-azaspiro[3.5]nonan-2-yl)pyrido[3,4-d]pyrimidin-2-amine], in assay [1], the pIC50 was over 6.70.

The compound `Cc1cc2cnc(NC3CCN(S(C)(=O)=O)CC3)nc2c(C2CC3(CNCC3(F)F)C2)n1` (stereo not drawn) [Compound 99, 8-(8,8-difluoro-6-azaspiro[3.4]octan-2-yl)-6-methyl-N-(1-(methylsulfonyl)piperidin-4-yl)pyrido[3,4-d]pyrimidin-2-amine] gave a pIC50 in assay [1] of over 6.70.

The compound `[2H]C([2H])([2H])N1CC2(CN(c3nc(C)cc4cnc(NC5CCN(S(=O)(=O)c6cnn(C)c6)CC5)nc34)CC2(F)F)C1` [Example 11, 8-(8,8-difluoro-2-(methyl-d3)-2,6-diazaspiro[3.4]octan-6-yl)-6-methyl-N-(1-((1-methyl-1H-pyrazol-4-yl)sulfonyl)piperidin-4-yl)pyrido[3,4-d]pyrimidin-2-amine] gave a pIC50 in assay [1] of over 6.70.

Compound `[2H]C([2H])([2H])N1CC2(CN(c3nc(C)cc4cnc(NC5CCN(S(C)(=O)=O)CC5)nc34)CC2(F)F)C1` [Example 12, 8-(8,8-difluoro-2-(methyl-d3)-2,6-diazaspiro[3.4]octan-6-yl)-6-methyl-N-(1-(methylsulfonyl)piperidin-4-yl)pyrido[3,4-d]pyrimidin-2-amine] gave a pIC50 in assay [1] of over 6.70.

Source of the values: patent US20250235456A1, “METHODS OF USE FOR AZA-QUINAZOLINE COMPOUNDS” (Iambic Therapeutics, Inc., priority 2024, published 2025).
